The test system of one assay is hair growth in mice.
Test: not given
The settings on record: applied topically to the skin of wild-type mice; cited from earlier work.
As for `CCCCC[C@H](O)/C=C/[C@H]1C(=O)C[C@H](O)[C@@H]1C/C=C\CCCC(=O)O` [PGD2, prostaglandin D2], the hair growth result is “inhibited hair growth”.

Another assay relates to explanted human hair follicles.
Test: not given
Conditions: administration to explanted human hair follicles; cited from earlier work.
In the case of `CCCCC[C@H](O)/C=C/[C@H]1C(=O)C[C@H](O)[C@@H]1C/C=C\CCCC(=O)O` [PGD2, prostaglandin D2], the hair growth result is reported as “inhibited hair growth”.

A further assay has as its target T1, human CRTH2 receptor (Homo sapiens, UniProt Q9Y5Y4).
T1 construct: host or cells: CHO-K1 (CHO-K1-hCRTH2 cells); membranes prepared in house from the purchased cell line
T1 sequence (Q9Y5Y4 1-395): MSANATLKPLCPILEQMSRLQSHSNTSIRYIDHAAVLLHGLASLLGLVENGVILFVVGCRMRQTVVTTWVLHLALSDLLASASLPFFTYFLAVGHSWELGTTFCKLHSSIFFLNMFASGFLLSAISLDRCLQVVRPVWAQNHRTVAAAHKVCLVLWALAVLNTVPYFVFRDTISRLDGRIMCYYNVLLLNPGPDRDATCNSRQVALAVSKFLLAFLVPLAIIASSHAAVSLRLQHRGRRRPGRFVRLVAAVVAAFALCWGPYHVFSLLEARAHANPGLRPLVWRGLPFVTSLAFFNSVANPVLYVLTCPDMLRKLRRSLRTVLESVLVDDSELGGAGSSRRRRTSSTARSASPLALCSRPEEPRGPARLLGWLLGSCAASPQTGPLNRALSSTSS
The experiment in a line: Human CRTH2 receptor membrane radioligand binding assay (SPA, [3H]-PGD2). The settings on record: displacement of [3H]-PGD2 (1 nM) from CHO-K1-hCRTH2 cell membranes, 3 h room temperature. Summed up: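 SPA binding using membranes from CHO-K1 cells expressing human CRTH2 (0.5–10 μg protein/well) with 1 nM [3H]-PGD2 in Tris pH 7.4 buffer with 0.1% BSA, 3 h at room temperature. Non-specific binding defined with 1 μM PGD2 or 10 μM CAY10471; inhibition calculated from specific binding.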
On the technique in general: Loss of bound radioactivity is the signal in a displacement assay; it reports binding, not function.
As for `CCc1nn(Cc2ccc(NC(=O)c3ccc(Cl)c(Cl)c3)cc2)c(CC)c1CC(=O)O` [Example 2.6], the inhibitory constant (Ki) was 0.25 nM.
Same read-out and setting: as for `CCc1nn(Cc2ccc(C(=O)NCc3ccc(Cl)c(Cl)c3)cc2)c(CC)c1CC(=O)O` [Example 9.18], the figure is 24.9 nM.
For the compound `Cc1nn(Cc2ccc(NC(=O)c3ccc(C(F)(F)F)cc3)cc2)c(C)c1CC(=O)O` [Example 1.1], the inhibitory constant (Ki) was 2.9 nM.
`Cc1nn(Cc2ccc(CSc3ccc(Cl)c(Cl)c3)cc2)c(C)c1CC(=O)O` [Example 16.4] registered an inhibition constant (Ki) of 875 nM.
`Cc1nn(Cc2ccc(NS(=O)(=O)c3ccc(C(F)(F)F)cc3)cc2)c(C)c1CC(=O)O` [Example 5.4]: the affinity, expressed as Ki, was 230 nM.
`Cc1ccc(C(=O)Nc2ccc(Cn3nc(C)c(CC(=O)O)c3C)cc2)c(F)c1` [Example 1.20] returned a Ki of 29.3 nM.
As for `Cc1nn(Cc2ccc(NC(=O)c3ccc(Cl)c(Cl)c3)cc2F)c(C)c1CC(=O)O` [Example 7.18], the inhibition constant (Ki) came to 2.4 nM.
The same measure, in the same setting: to `Cc1nn(Cc2ccc(NC(=O)/C=C/c3ccccc3)cc2)c(C)c1CC(=O)O` [Example 1.13] belongs 4 nM; to `CCc1nn(Cc2ccc(NC(=O)[C@H]3CC[C@@H](C(F)(F)F)CC3)cc2)c(CC)c1CC(=O)O` [Example 2.16], 23.9 nM; to `CCc1nn(Cc2ccc(OCc3cccc(Cl)c3)cc2)c(CC)c1CC(=O)O` [Example 13.9], 39.1 nM.
`Cc1nn(Cc2ccc(NC(=O)OCc3ccccc3Br)cc2)c(C)c1CC(=O)O` [Example 3.6] gave a Ki of 14.9 nM.
`CCc1nn(Cc2ccc(NC(=O)c3ccc(C)cc3)cc2)c(CC)c1CC(=O)O` [Example 2.4] showed a Ki of 1.3 nM.
`CCc1nn(Cc2ccc([S+]([O-])Cc3ccc(Cl)c(Cl)c3)cc2)c(CC)c1CC(=O)O` (centres unmarked) [Example 19.3] registered a Ki of 12.2 nM.
As for `Cc1ccc(C(=O)Nc2ccc(Cn3nc(C)c(CC(=O)O)c3C)cc2)c(C)c1` [Example 1.12], the Ki worked out at 12.9 nM.
Still for that read-out and setting: as for `CCc1nn(Cc2ccc(OCc3cccc(C)c3)cc2)c(CC)c1CC(=O)O` [Example 13.13], the figure is 49.9 nM.
Take `CCc1nn(Cc2ccc(NC(=O)C3CCCCC3)cc2)c(CC)c1CC(=O)O` [Example 2.18]: the affinity, expressed as Ki, was 2.8 nM.
`Cc1nn(Cc2ccc(NCc3ccc(C(F)(F)F)cc3)cc2)c(C)c1CC(=O)O` [Example 6.3]: the Ki is 261 nM.
With `Cc1cc(C(=O)Nc2ccc(Cn3nc(C)c(CC(=O)O)c3C)cc2)c(C)cc1Br` [Example 1.17], the Ki is 2.5 nM.
On to `Cc1nn(Cc2ccc(C(=O)Cc3ccccc3)cc2)c(C)c1CC(=O)O` [Example 15.2], for which the inhibition constant (Ki) turned out to be 552 nM.
Compound `Cc1nn(Cc2ccc([S+]([O-])Cc3ccc(Cl)c(Cl)c3)cc2)c(C)c1CC(=O)O` (centres unmarked) [Example 19.2] showed an inhibition constant (Ki) of 12 nM.
As to `CCc1nn(Cc2ccc(NC(=O)OCc3ccccc3)cc2)c(CC)c1CC(=O)O` [Example 3.3], affinity was put at a Ki of 0.3 nM.
In turn, `Cc1nn(Cc2ccc(NC(=O)/C=C/c3ccccc3)cc2F)c(C)c1CC(=O)O` [Example 7.21] gave a Ki of 1.9 nM.
Consider `CCc1nn(Cc2ccc(NC(=O)c3ccc(Cl)cc3Br)cc2)c(CC)c1CC(=O)O` [Example 2.24], for which affinity was put at a Ki of 2.8 nM.
Consider `Cc1c(CC(=O)O)c(-c2ccccc2)nn1Cc1ccc(NC(=O)c2ccc3ccccc3c2)cc1` [Example 2.12], for which the inhibitory constant (Ki) stood at 2.3 nM.
Turning to `CCc1nn(C(C)c2ccc(C(=O)Nc3ccc(C(F)(F)F)cc3)cc2)c(CC)c1CC(=O)O` (centres unmarked) [Example 17.2], the Ki is 4.3 nM.
Same read-out and setting: to `Cc1nn(Cc2ccc(OCc3ccccc3)cc2)c(C)c1CC(=O)O` [Example 13.4] belongs 325 nM; to `Cc1cc(C(F)(F)F)ccc1C(=O)Nc1ccc(Cn2nc(C)c(CC(=O)O)c2C)c(Cl)c1` [Example 7.14], 1.6 nM.
The compound `Cc1c(CC(=O)O)c(-c2ccccc2)nn1Cc1ccc(NC(=O)c2ccc(C(F)(F)F)cc2)cc1` [Example 2.11] had a Ki of 1.2 nM.
In turn, `CCc1nn(Cc2ccc(NC(=O)c3ccc4ccccc4c3)cc2)c(CC)c1CC(=O)O` [Example 2.14] had an inhibition constant Ki of 0.2 nM.
Still for that read-out and setting: as for `Cc1nn(Cc2ccc(NC(=O)c3ccc4ccccc4c3)cc2Cl)c(C)c1CC(=O)O` [Example 7.13], the figure is 1.3 nM.
Compound `CCc1c(CC(=O)O)cnn1Cc1ccc(NC(=O)c2ccc3ccccc3c2)cc1` [Example 2.59] returned a Ki of 17.4 nM.
As to `CCc1nn(Cc2ccc(C(=O)NCc3ccc(Cl)c(C(F)(F)F)c3)cc2)c(CC)c1CC(=O)O` [Example 9.19], the affinity, expressed as Ki, was 30.5 nM.
Same read-out and setting: as for `O=C(O)Cc1c(-c2ccccc2)nn(Cc2ccc(NC(=O)c3ccc4ccccc4c3)cc2)c1-c1ccccc1` [Example 2.44], the figure is 10.2 nM; as for `Cc1nn(Cc2ccc(NC(=O)c3ccc(Cl)cc3Br)cc2)c(C)c1CC(=O)O` [Example 1.28], 12.4 nM; as for `CCc1nn(Cc2ccc(S(=O)(=O)Nc3ccc(Cl)c(F)c3)cc2)c(CC)c1CC(=O)O` [Example 10.5], 27.8 nM.
On to `Cc1nn(Cc2ccc(NC(=O)C(C)C)cc2)c(C)c1CC(=O)O` [Example 1.32], for which the Ki worked out at 32.5 nM.
On the same count and under the same terms, as for `Cc1nn(Cc2ccc(NC(=O)c3ccc(Cl)cc3Cl)cc2)c(C)c1CC(=O)O` [Example 1.18], the figure is 17.9 nM; as for `Cc1cc(Cn2nc(C)c(CC(=O)O)c2C)ccc1NC(=O)c1ccccc1` [Example 7.1], 407 nM; as for `CCc1nn(Cc2ccc(NC(=O)c3ccc(Cl)cc3)cc2)c(CC)c1CC(=O)O` [Example 2.5], 0.75 nM.
In the case of `Cc1nn(Cc2ccc(OCc3ccc(Cl)c(Cl)c3)cc2)c(C)c1CC(=O)O` [Example 13.1], the affinity corresponds to a Ki of 30 nM.
`Cc1nn(Cc2ccc(C[S+]([O-])c3ccc(Cl)c(Cl)c3)cc2)c(C)c1CC(=O)O` (centres unmarked) [Example 16.5] returned an inhibitory constant (Ki) of 325 nM.
As to `Cc1nn(Cc2ccc(C(=O)Nc3ccc(Cl)c(C(F)(F)F)c3)cc2)c(C)c1CC(=O)O` [Example 9.6], the Ki was found to be 3 nM.
With `CCc1nn(Cc2ccc(C(=O)Nc3ccc(Cl)c(C(F)(F)F)c3)cc2F)c(CC)c1CC(=O)O` [Example 9.27], the affinity corresponds to a Ki of 0.5 nM.
`Cc1nn(Cc2ccc(NC(=O)c3cccc4c3CCCC4)cc2)c(C)c1CC(=O)O` [Example 1.29] came in with a Ki of 2.5 nM.
On the same count and under the same terms, to `CCc1nn(Cc2ccc(NC(=O)c3ccc(C(F)(F)F)cc3)cc2)c(C)c1CC(=O)O` [Example 2.53] belongs 0.2 nM.
`Cc1cc(Br)ccc1C(=O)Nc1ccc(Cn2nc(C)c(CC(=O)O)c2C)cc1` [Example 1.16] came in with an inhibitory constant (Ki) of 3.9 nM.
As for `Cc1nn(Cc2ccc(NC(=O)c3ccc(C(F)(F)F)cc3)cc2)c(-c2ccccc2)c1CC(=O)O` [Example 2.9], the Ki is 1.8 nM.
As to `CCc1nn(Cc2ccc(NC(=O)c3cc(C)ccc3Br)cc2)c(CC)c1CC(=O)O` [Example 2.19], the inhibition constant Ki was found to be 5.8 nM.
The same measure, in the same setting: to `Cc1nn(Cc2ccc(NC(=O)c3ccc4ccccc4c3Br)cc2)c(C)c1CC(=O)O` [Example 1.30] belongs 14.6 nM.
On the same count and under the same terms, as for `CCCc1c(C)cccc1C(=O)Nc1ccc(Cn2nc(CC)c(CC(=O)O)c2CC)cc1` [Example 2.27], the figure is 4.3 nM; as for `Cc1ccc(C(=O)Nc2ccc(Cn3nc(C)c(CC(=O)O)c3C)cc2)c(C(F)(F)F)c1` [Example 1.21], 80.2 nM.

As a reminder, the Ki is the dissociation constant of the complex between target and ligand, obtained from inhibition or displacement.

The values are drawn from patent US20140148484A1, “PYRAZOLE COMPOUNDS FOR TREATING HAIRLOSS” (Boehringer Ingelheim International GmbH, priority 2012, published 2014).
